{
  "source": "patent US7598258B2",
  "about": "“Quinoline derivatives and quinazoline derivatives inhibiting autophosphorylation of macrophage colony stimulating factor receptor” (Kirin Beer Kabushiki Kaisha, priority 2002, dated 2009)",
  "data": [
    {"biological_target": "T1, mouse c-fms (Mus musculus, UniProt P09581)", "T1 construct": "Macrophage-like cell line BAC-1.2F5 which expresses c-fms as a M-CSF receptor on cell membranes; endogenous in cells; host or cells: BAC-1.2F5 mouse macrophage-like cell line", "T1 sequence (P09581 20-977)": "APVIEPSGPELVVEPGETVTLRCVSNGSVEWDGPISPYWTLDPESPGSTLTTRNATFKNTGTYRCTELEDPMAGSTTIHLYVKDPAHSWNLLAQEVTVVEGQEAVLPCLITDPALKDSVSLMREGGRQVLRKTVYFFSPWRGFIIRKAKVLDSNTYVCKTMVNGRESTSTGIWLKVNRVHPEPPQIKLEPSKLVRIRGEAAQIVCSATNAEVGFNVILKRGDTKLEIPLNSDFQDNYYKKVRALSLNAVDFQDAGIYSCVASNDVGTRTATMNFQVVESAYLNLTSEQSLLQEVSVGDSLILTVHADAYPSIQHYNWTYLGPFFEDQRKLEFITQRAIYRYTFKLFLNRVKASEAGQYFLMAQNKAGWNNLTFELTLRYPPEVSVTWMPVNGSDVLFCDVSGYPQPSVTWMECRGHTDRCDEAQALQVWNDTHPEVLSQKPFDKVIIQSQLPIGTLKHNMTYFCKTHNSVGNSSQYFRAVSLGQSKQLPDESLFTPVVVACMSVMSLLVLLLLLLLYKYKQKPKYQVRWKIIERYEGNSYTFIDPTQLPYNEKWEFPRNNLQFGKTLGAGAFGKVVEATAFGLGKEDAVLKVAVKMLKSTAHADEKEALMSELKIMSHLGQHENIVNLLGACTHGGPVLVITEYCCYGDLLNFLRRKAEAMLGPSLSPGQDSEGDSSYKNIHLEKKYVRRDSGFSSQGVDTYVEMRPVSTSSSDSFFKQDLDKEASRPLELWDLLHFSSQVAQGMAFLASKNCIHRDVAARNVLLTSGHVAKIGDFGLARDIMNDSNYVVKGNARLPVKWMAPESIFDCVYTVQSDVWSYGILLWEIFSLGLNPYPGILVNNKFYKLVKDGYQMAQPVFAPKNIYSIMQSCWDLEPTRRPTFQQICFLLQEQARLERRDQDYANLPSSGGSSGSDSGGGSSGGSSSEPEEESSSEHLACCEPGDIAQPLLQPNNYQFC", "assay": "Inhibition of c-fms autophosphorylation in macrophage-like cell line BAC-1.2F5 by M-CSF stimulation (ELISA)", "format": "cell-based", "settings": "BAC-1.2F5 cells, human recombinant M-CSF 50 ng/ml, read-out: c-fms autophosphorylation 50% inhibitory concentration (IC50)", "method": "Macrophage-like cell line BAC-1.2F5 which expresses c-fms as a M-CSF receptor on cell membranes (CLAUDIA M. et al., J. Cell. Physiol., 130, 420-427 (1987), “Isolation and Characterization of a Cloned Growth Factor Dependent Macrophage Cell Line, BAC1.2F5”) was cultured at 37° C. in a DMEM medium containing L-cell supernatant and 10% fetal calf serum (GIBCO BRL) in a 5% CO2 incubator until about 50 to 70% confluent. The harvested cells were inoculated into wells, each containing the same medium, in a collagen type I coat 96-well flat-bottom plate in an amount of 5.0×10^4 per well, and cultured at 37° C. for 12 hr. Thereafter, the medium was replaced with a DMEM medium containing a 0.1% fetal calf serum and cultured for 12 hr. Thereafter, a test compound dissolved in dimethyl sulfoxide was added to each well, and cells were incubated at 37° C. for one hr. Human recombinant M-CSF was added to a final concentration of 50 ng/ml, and cells were stimulated at 37° C. for 6 min. After the medium was removed, 50 μl of a solubilization buffer (20 mM HEPES (pH 7.4), 150 mM NaCl, 0.2% Triton X-100, 10% glycerol, 5 mM sodium orthovanadylate, 5 mM disodium ethylenediaminetetraacetate, and 2 mM Na4P2O7) was added thereto. The mixture was shaken at 4° C. for 2 hr to prepare a cell extract as an assay sample which was then used for an ELISA assay.\nThe plate for the ELISA assay was prepared as follows. Phosphate buffered saline (50 μl, pH 7.4) containing 5 μg/ml of anti-phospho-tyrosine antibody (PY20; Transduction Laboratories) was added to a microplate for ELISA (Maxisorp; purchased from NUNC), followed by standing at 4° C. overnight to be immobilized on the wells. Thereafter, each well was washed twice with 200 μl of a Ca- and Mg-free phosphate buffer containing 0.1% Tween-20 (hereinafter referred to as “PBS-T”), and 200 μl of a blocking solution (Dainippon Pharmaceutical Co. Ltd.: BlockAce) was added to each well, and the wells were then allowed to stand at room temperature for 2 hr for blocking.\nSeparately, phosphate buffered saline (50 μl, pH 7.4) containing 5 μg/ml of anti-phospho-tyrosine antibody (PY20; Transduction Laboratories) was added to a microplate for ELISA (Maxisorp; purchased from NUNC), followed by standing at 4° C. overnight to form a solid phase on the wells. After washing of the plate, 300 μl of a blocking solution was added, followed by standing at room temperature for 2 hr to perform blocking. After washing, the whole quantity of the cell extract was transferred to the wells, and the plate was then allowed to stand at 4° C. overnight. After washing, anti-c-fms antiserum (Upstate Biotechnology, Inc.) was allowed to react at room temperature for one hr, and, after washing, a peroxidase-labeled anti-rabbit Ig antibody (Amersham) was allowed to react at room temperature for one hr. After washing, a chromophoric substrate for peroxidase (Sumitomo Bakelite Co., Ltd.) was added thereto to initiate a reaction. After a suitable level of color development, a reaction termination solution was added to stop the reaction, and the absorbance at 450 nm was measured with a microplate reader. The c-fms phosphorylation activity for each well was determined by presuming the absorbance without the addition of the test compound and with the addition of M-CSF to be 100% c-fms phosphorylation activity and the absorbance without the addition of the test compound and M-CSF to be 0% c-fms phosphorylation activity. The concentration of the test compound was varied on several levels, the c-fms phosphorylation inhibitory rate was determined for each case, and the concentration of the test compound necessary for inhibiting 50% of c-fms phosphorylation (IC50) was calculated.", "units": {"IC50": "nM"}, "values": [
      {"smiles": "COc1cc2nccc(Oc3ccc(NC(=O)NC(C)c4ccc(F)cc4)c(C)c3C)c2cc1OC", "note": "(stereo not shown) [Example 25, N-{4-[(6,7-Dimethoxy-4-quinolyl)oxy]-2,3-dimethylphenyl}-N′-[1-(4-fluorophenyl)ethyl]urea]", "IC50": 21.9},
      {"smiles": "COc1cc2nccc(Oc3ccc(NC(=O)N[C@@H](C)c4ccc(F)cc4)c(C)c3C)c2cc1OC", "note": "[Example 26, N-{4-[(6,7-Dimethoxy-4-quinolyl)oxy]-2,3-dimethylphenyl}-N′-[(1S)-1-(4-fluorophenyl)ethyl]urea]", "IC50": 16.3},
      {"smiles": "COc1cc2nccc(Oc3ccc(NC(=O)N[C@H](C)c4ccc(F)cc4)c(C)c3C)c2cc1OC", "note": "[Example 27, N-{4-[(6,7-Dimethoxy-4-quinolyl)oxy]-2,3-dimethylphenyl}-N′-[(1R)-1-(4-fluorophenyl)ethyl]urea]", "IC50": 7.6},
      {"smiles": "COc1cc2nccc(Oc3ccc(NC(=O)NC(C)c4ccc(F)cc4)c(F)c3)c2cc1OC", "note": "(stereo not shown) [Example 28, N-{4-[(6,7-Dimethoxy-4-quinolyl)oxy]-2-fluorophenyl}-N′-[1-(4-fluorophenyl)ethyl]urea]", "IC50": 6.5},
      {"smiles": "COc1cc2nccc(Oc3ccc(NC(=O)N[C@@H](C)c4ccc(F)cc4)c(F)c3)c2cc1OC", "note": "[Example 29, N-{4-[(6,7-Dimethoxy-4-quinolyl)oxy]-2-fluorophenyl}-N′-[(1S)-1-(4-fluorophenyl)ethyl]urea]", "IC50": 2.3},
      {"smiles": "COc1cc2nccc(Oc3ccc(NC(=O)N[C@H](C)c4ccc(F)cc4)c(F)c3)c2cc1OC", "note": "[Example 30, N-{4-[(6,7-Dimethoxy-4-quinolyl)oxy]-2-fluorophenyl}-N′-[(1R)-1-(4-fluorophenyl)ethyl]urea]", "IC50": 3.1},
      {"smiles": "COc1cc2nccc(Oc3ccc(NC(=O)NC(C)c4ccc(F)cc4)cc3F)c2cc1OC", "note": "(stereo not shown) [Example 31, N-{4-[(6,7-Dimethoxy-4-quinolyl)oxy]-3-fluorophenyl}-N′-[1-(4-fluorophenyl)ethyl]urea]", "IC50": 12.9},
      {"smiles": "COc1cc2nccc(Oc3ccc(NC(=O)N[C@@H](C)c4ccc(F)cc4)cc3F)c2cc1OC", "note": "[Example 32, N-{4-[(6,7-Dimethoxy-4-quinolyl)oxy]-3-fluorophenyl}-N′-[(1S)-1-(4-fluorophenyl)ethyl]urea]", "IC50": 3.5},
      {"smiles": "COc1cc2nccc(Oc3ccc(NC(=O)N[C@H](C)c4ccc(F)cc4)cc3F)c2cc1OC", "note": "[Example 33, N-{4-[(6,7-Dimethoxy-4-quinolyl)oxy]-3-fluorophenyl}-N′-[(1R)-1-(4-fluorophenyl)ethyl]urea]", "IC50": 6.5},
      {"smiles": "COc1cc2nccc(Oc3ccc(NC(=O)N[C@@H](C)c4ccc(Br)cc4)cc3)c2cc1OC", "note": "[Example 34, N-[(1S)-1-(4-Bromophenyl)ethyl]-N′-{4-[(6,7-dimethoxy-4-quinolyl)oxy]phenyl}urea]", "IC50": 6.3},
      {"smiles": "COc1cc2nccc(Oc3ccc(NC(=O)N[C@@H](C)c4ccccc4OC)cc3)c2cc1OC", "note": "[Example 51, N-{4-[(6,7-Dimethoxy-4-quinolyl)oxy]phenyl}-N′-[(1S)-1-(2-methoxyphenyl)ethyl]urea]", "IC50": 7.6},
      {"smiles": "COc1cc2nccc(Oc3ccc(NC(=O)N[C@H](C)c4ccccc4OC)cc3)c2cc1OC", "note": "[Example 52, N-{4-[(6,7-Dimethoxy-4-quinolyl)oxy]phenyl}-N′-[(1R)-1-(2-methoxyphenyl)ethyl]urea]", "IC50": 5.5},
      {"smiles": "COc1ccc([C@H](C)NC(=O)Nc2ccc(Oc3ccnc4cc(OC)c(OC)cc34)cc2)cc1", "note": "[Example 53, N-{4-[(6,7-Dimethoxy-4-quinolyl)oxy]phenyl}-N′-[(1S)-1-(4-methoxyphenyl)ethyl]urea]", "IC50": 2.7},
      {"smiles": "COc1ccc([C@@H](C)NC(=O)Nc2ccc(Oc3ccnc4cc(OC)c(OC)cc34)cc2)cc1", "note": "[Example 54, N-{4-[(6,7-Dimethoxy-4-quinolyl)oxy]phenyl}-N′-[(1R)-1-(4-methoxyphenyl)ethyl]urea]", "IC50": 69.5},
      {"smiles": "COc1cc2nccc(Oc3ccc(NC(=O)N[C@H](C)c4cccc(Br)c4)c(Cl)c3)c2cc1OC", "note": "[Example 55, N-[(1R)-1-(3-Bromophenyl)ethyl]-N′-{2-chloro-4-[(6,7-dimethoxy-4-quinolyl)oxy]phenyl}urea]", "IC50": 45.4},
      {"smiles": "COc1cc2nccc(Oc3cc(C)c(NC(=O)N[C@H](C)c4cccc(Br)c4)cc3C)c2cc1OC", "note": "[Example 56, N-[(1R)-1-(3-Bromophenyl)ethyl]-N′-{4-[(6,7-dimethoxy-4-quinolyl)oxy]-2,5-dimethylphenyl}urea]", "IC50": 193},
      {"smiles": "COc1cc2nccc(Oc3ccc(NC(=O)N[C@H](C)c4cccc(Br)c4)cc3Cl)c2cc1OC", "note": "[Example 57, N-[(1R)-1-(3-Bromophenyl)ethyl]-N′-{3-chloro-4-[(6,7-dimethoxy-4-quinolyl)oxy]phenyl}urea]", "IC50": 128},
      {"smiles": "COc1cc2nccc(Oc3ccc(NC(=O)N[C@H](C)c4cccc(Br)c4)c(C)c3)c2cc1OC", "note": "[Example 58, N-[(1R)-1-(3-Bromophenyl)ethyl]-N′-{4-[(6,7-dimethoxy-4-quinolyl)oxy]-2-methylphenyl}urea]", "IC50": 80.9},
      {"smiles": "COc1cc(Oc2ccnc3cc(OC)c(OC)cc23)ccc1NC(=O)N[C@H](C)c1cccc(Br)c1", "note": "[Example 59, N-[(1R)-1-(3-Bromophenyl)ethyl]-N′-{4-[(6,7-dimethoxy-4-quinolyl)oxy]-2-methoxyphenyl}urea]", "IC50": 20.3},
      {"smiles": "COc1cc2nccc(Oc3ccc(NC(=O)N[C@H](C)c4cccc(Br)c4)c(C(F)(F)F)c3)c2cc1OC", "note": "[Example 60, N-[(1R)-1-(3-Bromophenyl)ethyl]-N′-[4-[(6,7-dimethoxy-4-quinolyl)oxy]-2-(trifluoromethyl)phenyl]urea]", "IC50": 115},
      {"smiles": "COc1cc2nccc(Oc3ccc(NC(=O)N[C@H](C)c4cccc(Br)c4)cc3OC)c2cc1OC", "note": "[Example 61, N-[(1R)-1-(3-Bromophenyl)ethyl]-N′-{4-[(6,7-dimethoxy-4-quinolyl)oxy]-3-methoxyphenyl}urea]", "IC50": 44.3},
      {"smiles": "COc1cc2nccc(Oc3ccc(NC(=O)N[C@H](C)c4cccc(Br)c4)c(C)c3C)c2cc1OC", "note": "[Example 62, N-[(1R)-1-(3-Bromophenyl)ethyl]-N′-{4-[(6,7-dimethoxy-4-quinolyl)oxy]-2,3-dimethylphenyl}urea]", "IC50": 29.4}
    ]}
  ]
}
